Columns and labels:
[1] = system: oxazolone-induced animal model of atopic dermatitis; experiment: oxazolone-induced animal model of atopic dermatitis in mice; format: in vivo, mice (Balb/c)
Protocol: An animal model of atopic dermatitis was induced in mice (Balb/c) by the use of oxazolone. With the first sensitization day of oxazolone set as day 0, it was administered orally or transdermally starting on day 7 once a day. When the date of application of oxazolone and the date of administration of the drug were overlapped, the drug was administered about 6 hours after application of oxazolone.
For all mice, abdominal hair was removed one day before the first application of oxazolone. Then, 1% or 0.2% oxazolone was prepared by the use of a 4:1 ratio of acetone/corn oil, and sensitization and induction on the shaved mouse abdomen and both ears were performed with the same dose and schedule as represented in Table 1 and FIG. 1.
The test substances (the Test Compound and dexamethasone as a positive control) were prepared for each administration dose as represented in Table 2 below by the use of 0.5% methyl cellulose. In the case of the Test Compound, it was prepared in consideration of the HCl salt form. The test substances were dissolved in 0.5% methyl cellulose and then sonicated.
The test substances were prepared by dissolving them at the concentration of 0.1% (w/v) in a solution (PEG400:100% ethanol=1:1). 5 mL of PEG400 was added to 10 mg of the test substances and sonicated. When they were dissolved to some extent, 5 mL of 100% ethanol was added thereto and sonicated to dissolve them completely. In addition, the vehicle and the test substances were prepared fresh every day and used.

[2] = system: oxazolone-induced animal model of atopic dermatitis; experiment: as above; format: in vivo, mice (Balb/c); conditions: Example 4, Table 3; for Therapeutic effect (Compared to disease-induced group): Ear thickness (Day 21 after administration): reduction in ear thickness
[3] = Example 4, Table 3, oral administration 1 mg/kg once a day, reduction in ear thickness
[4] = Example 4, Table 3, oral administration 1 mg/kg once a day, reduction in ear weight after autopsy
[5] = Example 4, Table 3, oral administration 1 mg/kg once a day, reduction in epidermal thickness
[6] = Example 4, Table 3, oral administration 1 mg/kg once a day, reduction in the blood level of IgE
[7] = Example 5 comparative experimentation, Table 4, oral administration 0.1 mg/kg
[8] = Example 5 comparative experimentation, Table 4, oral administration 0.3 mg/kg
[9] = Example 5 comparative experimentation, Table 4, oral administration 1 mg/kg
[10] = Example 5 comparative experimentation, Table 4, oral administration 1 mg/kg, blood level of IgE

## C[C@@H]1C[C@H]2[C@@H]3CCC4=CC(=O)C=C[C@]4(C)[C@@]3(F)[C@@H](O)C[C@]2(C)[C@@]1(O)C(=O)CO [Dexamethasone, dexamethasone, reference compound]
[1]; [3]
  Therapeutic effect (Compared to disease-induced group): Ear thickness (Day 21 after administration): 66%
[1]; [4]
  Therapeutic effect (Compared to disease-induced group): Ear weight (Day 21 after administration): 54%
[1]; [5]
  Therapeutic effect (Compared to disease-induced group): Epidermal thickness of ear tissue (Day 21 after administration): 55%
[1]; [6]
  Therapeutic effect (Compared to disease-induced group): IgE (Day 21 after administration): 12%

## CC(C)n1nc(Cl)c2cc(COc3ccc4c(c3)CCC(CN3CCC(C(=O)O)CC3)=C4Cl)ccc21 [Test Compound, 1-[1-Chloro-6-(3-chloro-1-isopropyl-1H-indazol-5-ylmethoxy)-3,4-dihydro-naphthalen-2-ylmethyl]-piperidine-4-carboxylic acid]
[2]; topical administration 0.01% once a day
  Therapeutic effect (Compared to disease-induced group): Ear thickness (Day 21 after administration): 63%
[2]; topical administration 0.01% once a day, reduction in epidermal thickness
  Therapeutic effect (Compared to disease-induced group): Epidermal thickness of ear tissue (Day 21 after administration): 26%
[2]; topical administration 0.03% once a day
  Therapeutic effect (Compared to disease-induced group): Ear thickness (Day 21 after administration): 71%
[2]; topical administration 0.03% once a day, reduction in the blood level of IgE
  Therapeutic effect (Compared to disease-induced group): IgE (Day 21 after administration): 74%
[1]; Example 4, Table 3, oral administration 0.1 mg/kg once a day, reduction in ear thickness
  Therapeutic effect (Compared to disease-induced group): Ear thickness (Day 21 after administration): 37%
[1]; Example 4, Table 3, oral administration 0.1 mg/kg once a day, reduction in ear weight after autopsy
  Therapeutic effect (Compared to disease-induced group): Ear weight (Day 21 after administration): −2%
[1]; Example 4, Table 3, oral administration 0.1 mg/kg once a day, reduction in epidermal thickness
  Therapeutic effect (Compared to disease-induced group): Epidermal thickness of ear tissue (Day 21 after administration): 25%
[1]; Example 4, Table 3, oral administration 0.1 mg/kg once a day, reduction in mast cell accumulation, ear tissue
  Therapeutic effect (Compared to disease-induced group): Mast cell accumulation (Day 21 after administration): 21%
[1]; Example 4, Table 3, oral administration 0.1 mg/kg once a day, reduction in the blood level of IgE
  Therapeutic effect (Compared to disease-induced group): IgE (Day 21 after administration): −56%
[1]; Example 4, Table 3, oral administration 0.3 mg/kg once a day, reduction in ear thickness
  Therapeutic effect (Compared to disease-induced group): Ear thickness (Day 21 after administration): 63%
[1]; Example 4, Table 3, oral administration 0.3 mg/kg once a day, reduction in ear weight after autopsy
  Therapeutic effect (Compared to disease-induced group): Ear weight (Day 21 after administration): 48%
[1]; Example 4, Table 3, oral administration 0.3 mg/kg once a day, reduction in epidermal thickness
  Therapeutic effect (Compared to disease-induced group): Epidermal thickness of ear tissue (Day 21 after administration): 56%
[1]; Example 4, Table 3, oral administration 0.3 mg/kg once a day, reduction in mast cell accumulation, ear tissue
  Therapeutic effect (Compared to disease-induced group): Mast cell accumulation (Day 21 after administration): 34%
[1]; Example 4, Table 3, oral administration 0.3 mg/kg once a day, reduction in the blood level of IgE
  Therapeutic effect (Compared to disease-induced group): IgE (Day 21 after administration): 38%
[1]; [3]
  Therapeutic effect (Compared to disease-induced group): Ear thickness (Day 21 after administration): 61%
[1]; [4]
  Therapeutic effect (Compared to disease-induced group): Ear weight (Day 21 after administration): 53%
[1]; [5]
  Therapeutic effect (Compared to disease-induced group): Epidermal thickness of ear tissue (Day 21 after administration): 61%
[1]; Example 4, Table 3, oral administration 1 mg/kg once a day, reduction in mast cell accumulation, ear tissue
  Therapeutic effect (Compared to disease-induced group): Mast cell accumulation (Day 21 after administration): 29%
[1]; [6]
  Therapeutic effect (Compared to disease-induced group): IgE (Day 21 after administration): 44%
[1]; Example 4, Table 3, topical administration 0.01% once a day, reduction in ear weight after autopsy
  Therapeutic effect (Compared to disease-induced group): Ear weight (Day 21 after administration): 65%
[1]; Example 4, Table 3, topical administration 0.01% once a day, reduction in mast cell accumulation, ear tissue
  Therapeutic effect (Compared to disease-induced group): Mast cell accumulation (Day 21 after administration): 42%
[1]; Example 4, Table 3, topical administration 0.01% once a day, reduction in the blood level of IgE
  Therapeutic effect (Compared to disease-induced group): IgE (Day 21 after administration): 43%
[1]; Example 4, Table 3, topical administration 0.03% once a day, reduction in ear weight after autopsy
  Therapeutic effect (Compared to disease-induced group): Ear weight (Day 21 after administration): 72%
[1]; Example 4, Table 3, topical administration 0.03% once a day, reduction in epidermal thickness
  Therapeutic effect (Compared to disease-induced group): Epidermal thickness of ear tissue (Day 21 after administration): 55%
[1]; Example 4, Table 3, topical administration 0.03% once a day, reduction in mast cell accumulation, ear tissue
  Therapeutic effect (Compared to disease-induced group): Mast cell accumulation (Day 21 after administration): 59%
[1]; Example 4, Table 3, topical administration 0.1% once a day, reduction in ear thickness
  Therapeutic effect (Compared to disease-induced group): Ear thickness (Day 21 after administration): 69%
[1]; Example 4, Table 3, topical administration 0.1% once a day, reduction in ear weight after autopsy
  Therapeutic effect (Compared to disease-induced group): Ear weight (Day 21 after administration): 69%
[1]; Example 4, Table 3, topical administration 0.1% once a day, reduction in epidermal thickness
  Therapeutic effect (Compared to disease-induced group): Epidermal thickness of ear tissue (Day 21 after administration): 58%
[1]; Example 4, Table 3, topical administration 0.1% once a day, reduction in mast cell accumulation, ear tissue
  Therapeutic effect (Compared to disease-induced group): Mast cell accumulation (Day 21 after administration): 70%
[1]; Example 4, Table 3, topical administration 0.1% once a day, reduction in the blood level of IgE
  Therapeutic effect (Compared to disease-induced group): IgE (Day 21 after administration): 71%
[1]; Example 4, summary of Table 3 and FIGS. 2 to 6
  overall effect in the oxazolone-induced animal model of atopic dermatitis versus positive control: superior effect in a dose-dependent manner compared to dexamethasone
[1]; Example 5, summary of Table 4 and FIG. 7
  overall effect in the animal model of atopic dermatitis versus comparative compound: equal or superior effects even at lower doses compared to the comparative compound, etrasimod
[1]; [7]
  Therapeutic effect (Compared to disease-induced group): Ear thickness (Day 21 after administration): 14%
  Therapeutic effect (Compared to disease-induced group): Ear weight (Day 21 after administration): 31%
  Therapeutic effect (Compared to disease-induced group): Epidermal thickness of ear tissue (Day 21 after administration): 21%
  Therapeutic effect (Compared to disease-induced group): Mast cell accumulation (Day 21 after administration): 27%
[1]; Example 5 comparative experimentation, Table 4, oral administration 0.1 mg/kg, blood level of IgE
  Therapeutic effect (Compared to disease-induced group): IgE (Day 21 after administration): 31%
[1]; [8]
  Therapeutic effect (Compared to disease-induced group): Ear thickness (Day 21 after administration): 29%
  Therapeutic effect (Compared to disease-induced group): Ear weight (Day 21 after administration): 55%
  Therapeutic effect (Compared to disease-induced group): Epidermal thickness of ear tissue (Day 21 after administration): 42%
  Therapeutic effect (Compared to disease-induced group): Mast cell accumulation (Day 21 after administration): 35%
[1]; Example 5 comparative experimentation, Table 4, oral administration 0.3 mg/kg, blood level of IgE
  Therapeutic effect (Compared to disease-induced group): IgE (Day 21 after administration): 46%
[1]; [9]
  Therapeutic effect (Compared to disease-induced group): Ear thickness (Day 21 after administration): 42%
  Therapeutic effect (Compared to disease-induced group): Ear weight (Day 21 after administration): 69%
  Therapeutic effect (Compared to disease-induced group): Epidermal thickness of ear tissue (Day 21 after administration): 44%
  Therapeutic effect (Compared to disease-induced group): Mast cell accumulation (Day 21 after administration): 43%
[1]; [10]
  Therapeutic effect (Compared to disease-induced group): IgE (Day 21 after administration): 72%

## O=C(O)C[C@H]1CCc2c1[nH]c1ccc(OCc3ccc(C4CCCC4)c(C(F)(F)F)c3)cc21 [etrasimod, 2-[(3R)-7-[[4-cyclopentyl-3-(trifluoromethyl)phenyl]methoxy]-1,2,3,4-tetrahydrocyclopenta[b]indol-3-yl] acetic acid, reference compound]
[1]; [9]
  Therapeutic effect (Compared to disease-induced group): Ear thickness (Day 21 after administration): 32%
  Therapeutic effect (Compared to disease-induced group): Ear weight (Day 21 after administration): 50%
  Therapeutic effect (Compared to disease-induced group): Epidermal thickness of ear tissue (Day 21 after administration): 36%
  Therapeutic effect (Compared to disease-induced group): Mast cell accumulation (Day 21 after administration): 28%
[1]; [10]
  Therapeutic effect (Compared to disease-induced group): IgE (Day 21 after administration): 47%

Source: patent publication US20230330077A1, “USE OF SPHINGOSINE-1-PHOSPHATE RECEPTOR AGONIST” (LG CHEM, LTD., priority 2020, published 2023)
